{"source": "patent US6686344B1", "about": "“Organic-arsonic compounds” (Paker Hughes Institute, priority 2003, dated 2004)", "key": {"NALM-6 (B-lineage ALL)": {"tested_on": "NALM-6 (B-lineage ALL)", "experiment": "MTT cytotoxicity assay, NALM-6", "format": "cell-based", "conditions": "Homo sapiens, NALM-6 cells, 24-36 hours incubation", "description": "(§1) The cytotoxicity of compound II was evaluated against two acute lymphoblastic leukemia (ALL) cell lines, NALM-6 (B-lineage ALL), and MOLT-3 (T-lineage ALL) using MTT (3-[4,5-dimethylthiazol-2-yl]-2,5-diphenyl tetrazolium bromide) assay (Boehringer Mannheim Corp., Indianapolis, Ind. The human leukemic cell lines (NALM-6, and MOLT-3) were obtained from the American Type Culture Collection and maintained as a continuous cell line in Dulbecco's modified Eagles's medium supplemented with 10% fetal bovine serum and antibiotics. Briefly, exponentially growing cells were seeded into a 96-well plate at a density of 2.5×10^4 cells/well and incubated for 36 hours at 37° C. prior to exposure to the compound. On the day of treatment, culture medium was carefully aspirated from the wells and replaced with fresh medium containing compound II at concentrations ranging from 0.1 to 250 μM. Triplicate wells were used for each treatment.\n(§2) The cells were incubated with compound II for 24-36 hours at 37° C. in a humidified 5% CO2 atmosphere. […] The absorbance of each well was measured in a microplate reader (Labsystems) at 540 nm and a reference wavelength of 690 nm. […] The percent survival was calculated using the formula: [formula]\n(§3) The IC50 values for cytotoxic activity were determined using Graph-pad Prism software, version 2.0 (San Diego, Calif., USA) and are shown below in Table 1."}, "MOLT-3 (T-lineage ALL)": {"tested_on": "MOLT-3 (T-lineage ALL)", "experiment": "MTT cytotoxicity assay, MOLT-3", "format": "cell-based", "conditions": "Homo sapiens, MOLT-3 cells, 24-36 hours incubation", "description": "as §1, §2, §3"}}}
{"smiles": "O=[As](O)(O)c1ccc(N=Nc2ccc(Nc3nc(C(Cl)(Cl)Cl)nc4ccccc34)cc2)cc1", "note": "[Compound II, 2-Trichloromethyl-4-4-[4′-(4″-phenylazo)phenylarsonic Acid]-aminoquinazoline]", "values": [{"measurement": "melting point", "result": "> 300", "unit": "°C"}, {"measurement": "IC50", "setting": "NALM-6 (B-lineage ALL)", "result": "1.1 ± 0.5", "unit": "µM"}, {"measurement": "IC50", "setting": "MOLT-3 (T-lineage ALL)", "result": "2 ± 0.8", "unit": "µM"}]}
